# Measurements taken from EP2491043B1, “2,7-SUBSTITUTED THIENO[3,2-D]PYRIMIDINE COMPOUNDS AS PROTEIN KINASE INHIBITORS” (Korea Institute of Science and Technology, priority 2009, dated 2011).
# Assays:
# FAK = biological target: T1, FAK (Homo sapiens, UniProt Q05397); test: Measurement of FAK kinase activity (ULight-LANCE assay); assay type: biochemical; conditions: 10 µM ATP, 3 nM FAK, TR-FRET; read-out: FAK inhibition activity (IC50)
# T1 construct: purchased Cell Signaling 7796
# Method: Full sequence FAK was purchased from Cell Signaling (Catalog No.: 7796). ULight-poly GT (PerkinElmer #TRF0100-D), Eu-anti-phospho-Tyr (PT66) ((PerkinElmer #AD0068) and Lance detection buffer (PerkinElmer #CR-97-100) were purchased from PerkinElmer. The kinase solution (50 mM Tris-HCl pH 7.5, 10 mM MgCl2, 1 mM EGTA, 2 mM DTT, 0.01% Tween-20) was adjusted to a final concentration of 3 nM by adding FAK diluted to 6 nM (2X) in white 384 OptiPlate, and added with an amount of 5 µL. 4X ULight-poly GT was adjusted to a final concentration of 100 nM. ATP (Sigma #A2383) was adjusted to a final concentration of 10 µM and in 2.5 µL aliquots. The test compound was sequentially diluted at 12 concentrations and treated with an amount of 0.5 µL. After shaking well and allowing to react at room temperature for 60 minutes, 5 µL of ethylenediaminetetraacetic acid (EDTA, final concentration 40 mM) diluted in Lance detection buffer (Lance detection buffer) was added and the mixture was left at room temperature for 5 minutes to stop the reaction. After adding 4X Eu-anti-phospho-Tyr (PT66) phosphorylated antibody diluted to a final concentration of 2 nM in detection buffer with an amount of 5 µL, and reaction was performed at room temperature for 60 minutes. After adjusting to detect time-resolved fluorescence energy transfer (TR-FRET) at excitation wavelength 320 nm and emission wavelength 665 nm, signals were detected using EnVision Multilabel Reader.
# [1] = test system: HT-29 human colon adenocarcinoma cells; test: Inhibition of proliferation of HT-29 cells (MTT assay); assay type: cell-based; conditions: read-out: Inhibition activity against proliferation of HT-29 cells (GI50)
# Method: HT-29 human colon adenocarcinoma cells were cultured in DMEM [10% FBS, 1% penicillin/streptomycin] at 37 °C in the presence of 5% CO2. The cultured HT-29 cells were harvested with 0.05% trypsin-0.02% EDTA and seeded in a 96-well plate at 5 x 10^3 cells per well.
# 3-(4,5-Dimethylthiazol-2-yl)-2,5-diphenyltetrazolium bromide (MTT) assay (CellTiter 96 Assay, Promega) was employed to measure cell viability. After adding 15 µL of a dye per well and culturing for 2 hours, the cells were treated with 100 µL of a stop solution and absorbance was measured 24 hours later. The test compound was treated a day after plating. The test compound had been sequentially diluted at 12 concentrations from a 10 mM stock solution using sterilized dimethylsulfoxide (DMSO) and treated with an amount of 0.5 µL. Absorbance at 590 nm was recorded using En Vision 2103, and GI50 value was calculated using GraphPad Prism 4.0 software.
# [2] = test system: prostate cancer PC-3, breast cancer BT-474, colon LoVo, lung cancer NCI-H460, glioblastoma U-87 MG and pancreatic cancer BxPC-3 cells; conditions: 25-100 mg/kg p.o., human tumor xenografts; cited from earlier work
# tumor = conditions: concurrent administration of TAE226 and docetaxel, animal model, P values < 0.01; cited from earlier work
# T1 sequence (Q05397 whole entry): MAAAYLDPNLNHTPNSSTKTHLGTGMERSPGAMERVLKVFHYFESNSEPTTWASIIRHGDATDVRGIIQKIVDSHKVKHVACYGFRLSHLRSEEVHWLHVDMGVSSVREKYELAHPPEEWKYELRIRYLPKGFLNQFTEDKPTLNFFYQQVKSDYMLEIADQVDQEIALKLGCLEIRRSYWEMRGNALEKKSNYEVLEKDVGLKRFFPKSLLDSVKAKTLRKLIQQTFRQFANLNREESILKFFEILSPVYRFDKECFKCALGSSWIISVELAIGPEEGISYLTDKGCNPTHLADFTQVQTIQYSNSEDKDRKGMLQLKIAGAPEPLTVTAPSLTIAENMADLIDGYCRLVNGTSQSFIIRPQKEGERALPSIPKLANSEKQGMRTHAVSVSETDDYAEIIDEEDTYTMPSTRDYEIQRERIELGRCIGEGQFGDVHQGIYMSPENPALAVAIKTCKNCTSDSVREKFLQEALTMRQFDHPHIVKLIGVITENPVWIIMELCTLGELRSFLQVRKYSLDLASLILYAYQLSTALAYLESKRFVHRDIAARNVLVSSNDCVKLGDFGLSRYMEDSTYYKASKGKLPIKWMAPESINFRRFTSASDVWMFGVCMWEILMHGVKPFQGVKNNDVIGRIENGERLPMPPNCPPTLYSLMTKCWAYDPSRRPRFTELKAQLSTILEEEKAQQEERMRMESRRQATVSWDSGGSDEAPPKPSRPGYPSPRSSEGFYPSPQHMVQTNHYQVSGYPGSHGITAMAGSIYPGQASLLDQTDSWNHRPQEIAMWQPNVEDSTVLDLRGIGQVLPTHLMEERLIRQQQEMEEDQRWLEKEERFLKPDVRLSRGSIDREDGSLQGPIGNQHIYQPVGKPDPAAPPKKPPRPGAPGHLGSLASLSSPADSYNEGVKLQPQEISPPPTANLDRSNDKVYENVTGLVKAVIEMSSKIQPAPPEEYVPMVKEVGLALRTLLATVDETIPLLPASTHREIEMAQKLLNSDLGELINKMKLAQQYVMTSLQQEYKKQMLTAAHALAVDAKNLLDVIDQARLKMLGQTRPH
IC50 (FAK) [nM],GI50 [1] [nM],SMILES,inhibition of tumor growth or tumor degeneration [2],tumor reduction (tumor)
< 500,< 1000,"O=C(NC1CC1)c1cccc(-c2csc3cnc(Nc4ccc(N5CCOCC5)nc4)nc23)c1 [Example 27, N-cyclopropyl-3-(2-(6-morpholinopyridin-3-ylamino)thieno[3,2-d]pyrimidin-7-yl)benzamide]",,
< 500,< 1000,"CCN1CCN(c2ccc(Nc3ncc4scc(-c5cnc6ccccc6c5)c4n3)cn2)CC1 [Example 30, N-(6-(4-ethylpiperazin-1-yl)pyridin-3-yl)-7-(quinolin-3-yl)thieno[3,2-d]pyrimidin-2-amine]",,
< 500,< 1000,"CCN1CCN(c2ccc(Nc3ncc4scc(-c5cccc(C(=O)NC6CC6)c5)c4n3)cn2)CC1 [Example 25, N-cyclopropyl-3-(2-(6-(4-ethylpiperazin-1-yl)pyridin-3-ylamino)thieno[3,2-d]pyrimidin-7-yl)benzamide]",,

# Second part, the compound before the results:
SMILES,IC50 (FAK) [nM],GI50 [1] [nM],inhibition of tumor growth or tumor degeneration [2],tumor reduction (tumor)
"CCN1CCN(c2ccc(Nc3ncc4scc(-c5cccc(NS(C)(=O)=O)c5)c4n3)cn2)CC1 [Example 1, N-(3-(2-(6-(4-ethylpiperazin-1-yl)pyridin-3-ylamino)thieno[3,2-d]pyrimidin-7-yl)phenyl)methanesulfonamide]",< 500,< 1000,,
"Cc1ccc(Nc2ncc3scc(-c4cccc(NS(C)(=O)=O)c4)c3n2)cn1 [Example 11, N-(3-(2-(6-methylpyridin-3-ylamino)thieno[3,2-d]pyrimidin-7-yl)phenyl)methanesulfonamide]",< 1000,< 1000,,
"CS(=O)(=O)Nc1cccc(-c2csc3cnc(Nc4ccc(N5CCOCC5)nc4)nc23)c1 [Example 12, N-(3-(2-(6-morpholinopyridin-3-ylamino)thieno[3,2-d]pyrimidin-7-yl)phenyl)methanesulfonamide]",< 1000,< 1000,,
CN(c1ncccc1CNc1nc(Nc2ccc3c(c2)CC(=O)N3)ncc1C(F)(F)F)S(C)(=O)=O [PF-562271],,,42-90%,
"Cc1ccc(Nc2ncc3scc(-c4cccc(C(=O)NC5CC5)c4)c3n2)cn1 [Example 26, N-cyclopropyl-3-(2-(6-methylpyridin-3-ylamino)thieno[3,2-d]pyrimidin-7-yl)benzamide]",< 10000,,,
CNC(=O)c1ccccc1Nc1nc(Nc2ccc(N3CCOCC3)cc2OC)ncc1Cl [TAE226],,,,85-97%
"CN(C)CCOc1ccc(Nc2ncc3scc(-c4cccc(NS(C)(=O)=O)c4)c3n2)cn1 [Example 13, N-(3-(2-(6-(2-(dimethylamino)ethoxy)pyridin-3-ylamino)thieno[3,2-d]pyrimidin-7-yl)phenyl)methanesulfonamide]",< 500,< 1000,,
